In one test the test system is DHL-6 cells. As to the kind of experiment: DHL-6 cell growth (Alamar Blue assay). Type of test: cell-based. The conditions noted are these: 3E4 cells/well, complete media.
A further test addresses Btk (Homo sapiens (Human), UniProt Q06187). Kind of test: Btk acellular kinase assay (TR-FRET).

Btk, sequence (Q06187 whole entry): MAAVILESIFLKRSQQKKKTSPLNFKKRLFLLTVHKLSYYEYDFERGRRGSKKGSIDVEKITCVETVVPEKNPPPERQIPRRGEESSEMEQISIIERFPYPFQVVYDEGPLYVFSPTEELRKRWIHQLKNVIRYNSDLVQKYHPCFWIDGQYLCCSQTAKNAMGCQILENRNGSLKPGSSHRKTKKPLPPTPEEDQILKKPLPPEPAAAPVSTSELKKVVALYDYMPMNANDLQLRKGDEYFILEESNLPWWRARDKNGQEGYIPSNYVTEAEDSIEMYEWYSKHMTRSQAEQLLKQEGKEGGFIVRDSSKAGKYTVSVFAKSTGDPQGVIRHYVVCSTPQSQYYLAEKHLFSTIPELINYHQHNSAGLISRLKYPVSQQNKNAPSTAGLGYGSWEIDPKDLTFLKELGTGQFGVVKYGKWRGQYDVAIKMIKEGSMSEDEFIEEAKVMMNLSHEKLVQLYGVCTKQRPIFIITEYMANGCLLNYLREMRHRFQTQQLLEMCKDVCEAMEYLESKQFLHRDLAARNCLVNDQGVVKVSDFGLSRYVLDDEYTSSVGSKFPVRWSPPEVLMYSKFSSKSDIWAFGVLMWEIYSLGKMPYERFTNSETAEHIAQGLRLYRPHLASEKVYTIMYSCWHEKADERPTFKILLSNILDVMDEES

`CN(C)C/C=C/C(=O)N1CCCC(n2nc(-c3ccc(Oc4ccccc4)cc3)c3c(N)ncnc32)C1` (centres unmarked) [Compound 15, (E)-1-(3-(4-amino-3-(4-phenoxyphenyl)-1H-pyrazolo[3,4-d]pyrimidin-1-yl)piperidin-1-yl)-4-(dimethylamino)but-2-en-1-one]: the “growth of DHL-6 cells” value in the test with DHL-6 cells is “inhibit growth”.
`C/C=C/C(=O)N1CCCC(n2nc(-c3ccc(Oc4ccccc4)cc3)c3c(N)ncnc32)C1` (centres unmarked) [Compound 5, (E)-1-(3-(4-amino-3-(4-phenoxyphenyl)-1H-pyrazolo[3,4-d]pyrimidin-1-yl)piperidin-1-yl)but-2-en-1-one]: the “fold less potent than 4” value at Btk came out at 28 fold.

For the origin of these results see patent publication US8476284B2, “Inhibitors of Bruton's tyrosine kinase” (Pharmacyclics, Inc., priority 2006, dated 2013).
